Measurements taken from US4175081A, “5-Substituted thiadiazole ureas” (priority 1977, dated 1979).

Assays:
Johnson grass (JG) [1] = experiment: Post-emergence herbicide test; assay type: in vivo, Sorgum helepense; details: Sorghum halepense, 336 h, two weeks after treatment; for pest or weed control: 2 lb/acre; for pest or weed control at 4483.4 g/ha: 4 lb/acre
Summary of the method: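 Visual injury or control scores taken 2 weeks after a post-emergence spray of pot-grown plants. Application was 8 lbs/acre (or 4 lbs/acre) in 38 gal/acre. Plants were held in the greenhouse with sub-irrigation only.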

Amaranth pigweed (PW) [2] = experiment: Post-emergence herbicide test; assay type: in vivo, Amaranthus retroflexus; details: 336 h, two weeks after treatment; for pest or weed control at 4483.4 g/ha: 4 lb/acre
Summary of the method: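 Visual injury or control ratings were made two weeks after spraying, with greenhouse watering by sub-irrigation only. Treatment was post-emergence, when pigweed seedlings had 1 or 2 true leaves, at 8 lbs active compound per acre (4 lbs/acre formulations also made) in a 38 gallons-per-acre spray volume.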

Bean (BN) [3] = experiment: Post-emergence herbicide test; assay type: in vivo, Phaseolus vulgaris var. Black Valentine; details: Phaseolus vulgaris, post-emergence, 336 h, two weeks after treatment; for pest or weed control at 2241.7 g/ha: 2 lb/acre; for pest or weed control at 4483.4 g/ha: 4 lb/acre
Summary of the method: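 Bean seedlings (Phaseolus vulgaris var. Black Valentine) were grown in potting soil in 3' pots until the primary leaves expanded. They were then sprayed under a hood with a removable belt and fixed nozzle, using 50 ml formulations. Afterward they were returned to the greenhouse and watered only by sub-irrigation. Percent control was judged visually two weeks after treatment.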

Cotton (CT) [4] = experiment: Post-emergence herbicide test; assay type: in vivo, Gossypium hirsutum var. DPL smooth leaf; details: Gossypium hirsutum, post-emergence, 336 h, two weeks after treatment; for pest or weed control at 2241.7 g/ha: 2 lb/acre; for pest or weed control at 4483.4 g/ha: 4 lb/acre
Summary of the method: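 This greenhouse post-emergence test measured how well spray treatments controlled cotton. Seedlings of Gossypium hirsutum var. DPL smooth leaf, with expanded cotyledons and a first true leaf 1' in length, were sprayed with 50 ml formulations in a belt-fed spray hood. They were then returned to the greenhouse and watered only by sub-irrigation. Injury was scored visually as % control after two weeks.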

Cotton (CT) [5] = experiment: Pre-emergence herbicide test; assay type: in vivo, Gossypium hirsutum var. DPL smooth leaf; details: Gossypium hirsutum, 336 h, two weeks after treatment; for pest or weed control at 2241.7 g/ha: 2 lb/acre; for pest or weed control at 4483.4 g/ha: 4 lb/acre
Summary of the method: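 Visual injury/control ratings were taken at two weeks post-spray. Pots seeded a day earlier received compound pre-emergence at 8 lbs/acre, or 4 lbs/acre, in a 38 gallon/acre spray volume, and were then held in the greenhouse, watered only from below.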

Barnyard grass (BG) [6] = experiment: Pre-emergence herbicide test; assay type: in vivo; details: Echinochloa crus-galli, 336 h, 2 lb/acre, two weeks after treatment
Summary of the method: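 Greenhouse pre-emergence spray test: pots seeded one day before treatment received compound at rates of 8 or 4 lb/acre (38 gal/acre). Visual injury/control scores for Echinochloa crus-galli taken at two weeks, with watering by sub-irrigation only.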

Corn (CN) [7] = experiment: Pre-emergence herbicide test; assay type: in vivo; details: Zea mays, 336 h, two weeks after treatment; for pest or weed control at 2241.7 g/ha: 2 lb/acre; for pest or weed control at 4483.4 g/ha: 4 lb/acre
Summary of the method: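 Visual injury/control ratings were made 2 weeks post-spray on corn pots seeded (4 seeds, seed-diameter depth) the day before treatment. Application was a belt-hood spray of 38 gal/acre delivering 8 lbs active per acre, with a 4 lbs/acre rate also formulated. Watering was by sub-irrigation throughout.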

Johnson grass (JG) [8] = experiment: Pre-emergence herbicide test; assay type: in vivo, Sorgum helepense; details: Sorghum halepense, 336 h, two weeks after treatment; for pest or weed control at 2241.7 g/ha: 2 lb/acre; for pest or weed control at 4483.4 g/ha: 4 lb/acre
Summary of the method: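 Visual injury or control rating two weeks post-treatment, after pre-emergence spray of 8 or 4 lbs active per acre (38 gal/acre) onto pots sown the previous day. Greenhouse watering by sub-irrigation only.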

Crabgrass (CG) [9] = experiment: Pre-emergence herbicide test; assay type: in vivo, Digitaria sanquinalis; details: Digitaria sanguinalis, pre-emergence, 336 h, two weeks after treatment; for pest or weed control: 2 lb/acre; for pest or weed control at 4483.4 g/ha: 4 lb/acre
Summary of the method: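 Crabgrass (Digitaria sanquinalis) was surface seeded in 3' plastic pots of potting soil, covered with screened soil, and watered by sub-irrigation in greenhouse trays. Pots were seeded one day before spraying in a hood with a moving belt and fixed nozzle. Plants stayed in the greenhouse on sub-irrigation, and pre-emergence control was rated visually two weeks after treatment.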

Turnip (TP) [10] = experiment: Post-emergence herbicide test; assay type: in vivo, Brassica sp.; details: Brassica rapa, post-emergence, 336 h, two weeks after treatment; for pest or weed control at 2241.7 g/ha: 2 lb/acre; for pest or weed control at 4483.4 g/ha: 4 lb/acre
Summary of the method: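 A greenhouse post-emergence herbicide test on turnip. Seeds were sown on the surface of potting soil in 3' plastic pots, lightly covered with screened soil and watered from below. Planting was timed so seedlings had 1 or 2 true leaves above the cotyledons at spraying, done in a hood with a fixed nozzle. Control or injury was scored by eye after two weeks.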

Corn (CN) [11] = experiment: Post-emergence herbicide test; assay type: in vivo; details: Zea mays, 336 h, two weeks after treatment; for pest or weed control: 2 lb/acre; for pest or weed control at 4483.4 g/ha: 4 lb/acre
Summary of the method: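 Greenhouse seedlings grown in potting soil and sprayed post-emergence at 8 lbs compound/acre (formulations also made for 4 lbs/acre) in 38 gallons/acre spray volume. Watering by sub-irrigation only. Injury or control rated visually two weeks after treatment.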

Amaranth pigweed (PW) [12] = experiment: Pre-emergence herbicide test; assay type: in vivo, Amaranthus retroflexus; details: 336 h, two weeks after treatment; for pest or weed control at 4483.4 g/ha: 4 lb/acre
Summary of the method: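 Visual injury or control ratings were made at two weeks on pre-emergence pots, sub-irrigated in the greenhouse. Seeds were sown a day before a hood spray delivering 8 lbs/acre (or 4 lbs/acre) of compound in 38 gallons per acre.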

Turnip (TP) [13] = experiment: Pre-emergence herbicide test; assay type: in vivo, Brassica sp.; details: Brassica rapa, pre-emergence, 336 h, two weeks after treatment; for pest or weed control at 2241.7 g/ha: 2 lb/acre; for pest or weed control at 4483.4 g/ha: 4 lb/acre
Summary of the method: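 In this pre-emergence greenhouse test, turnip was seeded on the surface of potting soil in 3' plastic pots, lightly covered with screened soil, and watered from below. One day later the pots were sprayed in a belt-fed spray hood. Watering continued only by sub-irrigation, and percent control was visually scored two weeks after treatment.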

Crabgrass (CG) [14] = experiment: Post-emergence herbicide test; assay type: in vivo, Digitaria sanquinalis; details: Digitaria sanguinalis, post-emergence, 336 h, two weeks after treatment; for pest or weed control: 2 lb/acre; for pest or weed control at 4483.4 g/ha: 4 lb/acre
Summary of the method: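 Crabgrass (Digitaria sanquinalis) was surface seeded individually in 3' plastic pots of potting soil, covered with screened soil, and watered by sub-irrigation in greenhouse trays. Planting was staggered so seedlings reached the target stage together. Post-emergence sprays were applied in a hood with a removable belt and fixed nozzle, and control was visually rated two weeks after treatment.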

Bean (BN) [15] = experiment: Pre-emergence herbicide test; assay type: in vivo, Phaseolus vulgaris var. Black Valentine; details: Phaseolus vulgaris, 336 h, two weeks after treatment; for pest or weed control at 2241.7 g/ha: 2 lb/acre; for pest or weed control at 4483.4 g/ha: 4 lb/acre
Summary of the method: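 Visual injury/control ratings were taken two weeks post-spray on sub-irrigated Phaseolus vulgaris var. Black Valentine. Pots were sown a day before treatment. Pre-emergence spray delivered 8 lbs actual compound per acre (or 4 lbs/acre) at 38 gallons per acre.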

Barnyard grass (BG) [16] = experiment: Post-emergence herbicide test; assay type: in vivo; details: Echinochloa crus-galli, 336 h, 2 lb/acre, two weeks after treatment
Summary of the method: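 Greenhouse pot-grown barnyard grass seedlings sprayed post-emergence at 8 lbs active compound per acre (some at 4 lbs/acre) in 38 gallons per acre, then sub-irrigated. Injury or control rated visually two weeks after treatment.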

Row | SMILES | pest or weed control (Johnson grass (JG) [1]) [%] | pest or weed control at 4483.4 g/ha (Johnson grass (JG) [1]) [%] | pest or weed control at 4483.4 g/ha (Amaranth pigweed (PW) [2]) [%] | pest or weed control at 2241.7 g/ha (Bean (BN) [3]) [%] | pest or weed control at 4483.4 g/ha (Bean (BN) [3]) [%] | pest or weed control at 2241.7 g/ha (Cotton (CT) [4]) [%] | pest or weed control at 4483.4 g/ha (Cotton (CT) [4]) [%] | pest or weed control at 2241.7 g/ha (Cotton (CT) [5]) [%] | pest or weed control at 4483.4 g/ha (Cotton (CT) [5]) [%] | pest or weed control at 2241.7 g/ha (Barnyard grass (BG) [6]) [%] | pest or weed control at 2241.7 g/ha (Corn (CN) [7]) [%] | pest or weed control at 4483.4 g/ha (Corn (CN) [7]) [%] | pest or weed control at 2241.7 g/ha (Johnson grass (JG) [8]) [%] | pest or weed control at 4483.4 g/ha (Johnson grass (JG) [8]) [%] | pest or weed control (Crabgrass (CG) [9]) [%] | pest or weed control at 4483.4 g/ha (Crabgrass (CG) [9]) [%] | pest or weed control at 2241.7 g/ha (Turnip (TP) [10]) [%] | pest or weed control at 4483.4 g/ha (Turnip (TP) [10]) [%] | pest or weed control (Corn (CN) [11]) [%] | pest or weed control at 4483.4 g/ha (Corn (CN) [11]) [%] | further results
1 | CNC(=O)Nc1nnc(C(F)F)s1 [Example 67] | 40 | 90 | 100 | 90 | 100 | 100 | 100 | 0 | 80 | 50 | 0 | 70 | 40 | 50 | 80 | 90 | 100 | 100 | 40 | 70 | pest or weed control at 4483.4 g/ha (Amaranth pigweed (PW) [12]): 100%; pest or weed control at 2241.7 g/ha (Turnip (TP) [13]): 60%; pest or weed control at 4483.4 g/ha (Turnip (TP) [13]): 100%; pest or weed control (Crabgrass (CG) [14]): 80%; pest or weed control at 4483.4 g/ha (Crabgrass (CG) [14]): 80%; pest or weed control at 2241.7 g/ha (Bean (BN) [15]): 0%; pest or weed control at 4483.4 g/ha (Bean (BN) [15]): 90%; pest or weed control at 2241.7 g/ha (Barnyard grass (BG) [16]): 80%
2 | CNC(=O)Nc1nnc(C(F)(F)C(F)(F)F)s1 [Example 68] | 80 | 80 | 100 | 90 | 100 | 80 | 100 | 60 | 90 | 30 | 30 | 50 | 20 | 30 | 50 | 90 | 100 | 100 | 50 | 100 | pest or weed control at 2241.7 g/ha (Amaranth pigweed (PW) [2]; 2 lb/acre): 100%; pest or weed control at 2241.7 g/ha (Amaranth pigweed (PW) [12]; 2 lb/acre): 100%; pest or weed control at 4483.4 g/ha (Amaranth pigweed (PW) [12]): 100%; pest or weed control at 2241.7 g/ha (Turnip (TP) [13]): 60%; pest or weed control at 4483.4 g/ha (Turnip (TP) [13]): 60%; pest or weed control (Crabgrass (CG) [14]): 90%; pest or weed control at 4483.4 g/ha (Crabgrass (CG) [14]): 100%; pest or weed control at 2241.7 g/ha (Bean (BN) [15]): 0%; pest or weed control at 4483.4 g/ha (Bean (BN) [15]): 100%; pest or weed control at 2241.7 g/ha (Barnyard grass (BG) [16]): 60%
